In patent US9849099B2, “Antimicrobial compounds, compositions and methods of use thereof” (WISCONSIN ALUMNI RESEARCH FOUNDATION, priority 2014, dated 2017):
In brackets after ≈: the same amount, converted by molar mass. Several values for one entry are separate records, joined by “and”; a condition that tells them apart may be missing. Equal entries are not always repeated. Entries after “also recorded” stand apart in the source; their conditions may differ. Where two headings read alike, the source gives them in different places.

Assays:
[1] = tested on: Acinetobacter baumannii; test: MIC micro-dilution; assay type: cell-based
Method: (§1) Luria-Bertani (LB) media (10 g/L tryptone, 10 g/L NaCl, 5 g/L yeast extract, pH 7.0) was used to grow all bacterial strains, except Streptococcus pyogenes. Streptococcus pyogenes was grown in Mueller-Hinton broth containing 5% (v/v) sheep blood. All bacterial cultures were grown at 37° C. All the E. coli strains were grown while shaking at 200 rpm, while clinical pathogens were incubated without shaking.
(§2) The MIC of all the strains was determined in LB media except Streptococcus pyogenes, which was grown in Mueller-Hinton media containing 5% (v/v) sheep blood. The micro-dilution method was utilized in 96-well clear flat-bottom plates (100 μL/well) according to the CLSI guidelines. All strains were grown at 37° C. for 16-18 hours in presence of various concentrations of compound. The MIC was determined by a visual inspection and experiments were performed in triplicate.

[2] = tested on: Staphylococcus aureus; test: MIC micro-dilution; assay type: cell-based
Method: as §1, §2

[3] = tested on: E. coli BW25113; test: MIC micro-dilution; assay type: cell-based; settings: Escherichia coli; E. coli BW25113; LB media, 37° C., 16-18 hours; read-out: MIC
Method: as §1, §2

[4] = tested on: Edwardsiella tarda; test: MIC micro-dilution; assay type: cell-based
Method: as §1, §2

[5] = tested on: Morganella morganii; test: MIC micro-dilution; assay type: cell-based
Method: as §1, §2

[6] = tested on: Klebsiella pneumoniae; test: MIC micro-dilution; assay type: cell-based
Method: as §1, §2

[7] = tested on: Vibrio cholerae; test: MIC micro-dilution; assay type: cell-based
Method: as §1, §2

[8] = tested on: Salmonella typhimurium; test: MIC micro-dilution; assay type: cell-based
Method: as §1, §2

[9] = tested on: Enterobacter aerogenes; test: MIC micro-dilution; assay type: cell-based
Method: as §1, §2

[10] = tested on: Pseudomonas aeruginosa; test: MIC micro-dilution; assay type: cell-based
Method: as §1, §2

[11] = tested on: Shigella boydii; test: MIC micro-dilution; assay type: cell-based; settings: LB media, 37° C., 16-18 hours
Method: as §1, §2

[12] = tested on: E. coli BW25113 ΔtolC; test: MIC micro-dilution; assay type: cell-based; settings: Escherichia coli, LB media, 37° C., 16-18 hours
Method: as §1, §2

[13] = tested on: broad panel of human pathogens; test: MIC against the panel of pathogens; assay type: cell-based; settings: for MICs compared with Compound 1: panel of pathogens
Method: as §1, §2

[14] = tested on: E. coli anucleate cell strain (SH3210); test: High throughput anucleate cell assay; assay type: cell-based, Escherichia coli; settings: screen of small molecule libraries
Method: Briefly, E. coli anucleate cell strain (SH3210; ΔtrpR5 his λ pXX747) is used in the assay. […] The anucleated cells thus appear fluorescent in the presence of a fluorescent substrate (e.g., DDOAG) for LacZ. The protocol is summarized as follows: • 1. Prepare overnight culture of E. coli anucleate cell strain (SH3210) from LB-ampicillin plates. • 2. Dilute starter culture 1:1000 with liquid LB treated with 50 mg/ml of ampicillin and incubate for approximately 2.5 hr at 37° C. until approximately 0.1 OD600. • 3. Split diluted culture into wells (200 μL) • i. […] Negative control: 1 μL of DMSO • 4. Incubate diluted culture with compounds for approximately 2.5 hr at 42° C. at 300 rpm in a clear plate. • 5. Incubate cultures on ice for approximately 10 min until condensation on the cover disappears. • 6. Measure absorbance at a wavelength of 595 nm. • 7. In a black 96-well plate, add 80 μL of Z-buffer (600 mM Na2HPO4, 40 mM NaH2PO4, 10 mM KCl, 0.1 MgSO4) to each well pre-loaded with the following reagents: • a. Cell lysis solution called Popculture™ (1:5 Popculture™ to buffer). Popculture™ is a buffered mixture of concentrated detergents. • b. […] Shake for 30 s and measure fluorescence at a wavelength of 659 nm. • 13. Normalize the fluorescence measurements by dividing by OD595.

[15] = tested on: Streptococcus pyogenes; test: MIC micro-dilution; assay type: cell-based; settings: Mueller-Hinton media containing 5% (v/v) sheep blood, 37° C., 16-18 hours
Method: as §1, §2

[16] = tested on: Bacillus subtilis 168; test: MIC micro-dilution; assay type: cell-based; settings: Bacillus subtilis, 168
Method: as §1, §2

[17] = tested on: Acinetobacter baumannii; test: MBC and antibacterial mode; assay type: cell-based
Method: (§3) The antibacterial mode (i.e., bactericidal, bacteriostatic) was determined by calculating the quotient of the MBC and the MIC. Compounds with a quotient >4 are defined as bacteriostatic; if the quotient is lower than 4, compounds are defined as bactericidal. A micro-dilution protocol was used to perform MIC and MBC experiments in triplicate according to the CLSI guidelines. […] The total volume (100 μL) in the wells with no visual growth were plated on 1.5% (w/v) LB agar or 1.5% (w/v) Mueller-Hinton agar with 5% sheep blood and incubated for 22 hours at 37° C.

[18] = tested on: Staphylococcus aureus; test: MBC and antibacterial mode; assay type: cell-based
Method: as §3

[19] = tested on: Streptococcus pyogenes; test: MBC and antibacterial mode; assay type: cell-based
Method: as §3

[20] = tested on: Edwardsiella tarda; test: MBC and antibacterial mode; assay type: cell-based
Method: as §3

[21] = tested on: Morganella morganii; test: MBC and antibacterial mode; assay type: cell-based
Method: as §3

[22] = tested on: Klebsiella pneumoniae; test: MBC and antibacterial mode; assay type: cell-based
Method: as §3

[23] = tested on: Vibrio cholerae; test: MBC and antibacterial mode; assay type: cell-based
Method: as §3

[24] = tested on: Salmonella typhimurium; test: MBC and antibacterial mode; assay type: cell-based
Method: as §3

[25] = tested on: Enterobacter aerogenes; test: MBC and antibacterial mode; assay type: cell-based
Method: as §3

[26] = tested on: Pseudomonas aeruginosa; test: MBC and antibacterial mode; assay type: cell-based
Method: as §3

[27] = tested on: Shigella boydii; test: MBC and antibacterial mode; assay type: cell-based
Method: as §3

[28] = LB media, 37° C., 16-18 hours, read-out: MIC
[29] = Salmonella enterica, Salmonella typhimurium, LB media, 37° C., 16-18 hours, read-out: MIC
[30] = Klebsiella aerogenes, Enterobacter aerogenes, LB media, 37° C., 16-18 hours, read-out: MIC

With `NCCc1c[nH]c2ccc(OCCCCCCCc3ccccc3)cc12` [Compound 11] the MIC [1, 28] was 7 µg/mL (≈ 20 µM), the MIC [2, 28] was 3.5 µg/mL (≈ 9.99 µM) and the MIC [3] was 14 µg/mL (≈ 39.9 µM). For the same compound, the MIC [4, 28] was 28 µg/mL (≈ 79.9 µM), the MIC [5, 28] was over 112 µg/mL and the MIC [6, 28] was 7 µg/mL (≈ 20 µM). The MIC [7] was 7 µg/mL (≈ 20 µM), the MIC [8, 29] was 7 µg/mL (≈ 20 µM) and the MIC [9, 30] was 14 µg/mL (≈ 39.9 µM). The MIC [10, 28] was 56 µg/mL (≈ 160 µM), the MIC ([11]; read-out: MIC) was 7 µg/mL (≈ 20 µM) and the MIC [12] was 1.8 µg/mL (≈ 5.14 µM). The “MICs compared with Compound 1” value [13] was “either the same or 2× different from Compound 1; also recorded: either the same or 2-fold different from 1”.

With `CCCCCCCCCOc1ccc2[nH]cc(CCN)c2c1` [Compound 1, 5-nonyloxytryptamine] the “hit in anucleate cell screen” value [14] was “potent hit”, the MIC [1] was 6 µg/mL (≈ 19.8 µM) and the MIC ([1]; LB media, 37° C., 16-18 hours) was 6.0 µg/mL (≈ 19.8 µM). The MIC [2] was 3 µg/mL (≈ 9.92 µM), the MIC ([2]; LB media, 37° C., 16-18 hours) was 3.0 µg/mL (≈ 9.92 µM) and the MIC [15] was 24 µg/mL (≈ 79.3 µM). For the same compound, the MIC [4] was 6 µg/mL (≈ 19.8 µM), the MIC ([4]; LB media, 37° C., 16-18 hours) was 6.0 µg/mL (≈ 19.8 µM) and the MIC [5] was 12 µg/mL (≈ 39.7 µM). It also gave an MIC [6] of 6 µg/mL (≈ 19.8 µM), an MIC ([6]; LB media, 37° C., 16-18 hours) of 6.0 µg/mL (≈ 19.8 µM) and an MIC [7] of 6 µg/mL (≈ 19.8 µM). It also gave an MIC ([7]; LB media, 37° C., 16-18 hours) of 6.0 µg/mL (≈ 19.8 µM), an MIC ([8]; Salmonella enterica, TYPHIMURIUM) of 6 µg/mL (≈ 19.8 µM) and an MIC ([8]; Salmonella typhimurium, LB media, 37° C., 16-18 hours) of 6.0 µg/mL (≈ 19.8 µM). For the same compound, the MIC ([9]; Enterobacter aerogenes, LB media, 37° C., 16-18 hours) was 6.0 µg/mL (≈ 19.8 µM), the MIC ([9]; Klebsiella aerogenes) was 6 µg/mL (≈ 19.8 µM) and the MIC [16] was 0.76 µg/mL (≈ 2.51 µM). For the same compound, the MIC [10] was 80 µM and 24 µg/mL, the MIC [11] was 6.0 µg/mL (≈ 19.8 µM) and the MIC ([11]; read-out: MIC) was 6 µg/mL (≈ 19.8 µM). For the same compound, the “Antibacterial Mode” value [17] was “Bactericidal (if the quotient is lower than 4, compounds are defined as bactericidal)”, the MBC [17] was 6 µg/mL (≈ 19.8 µM) and the MBC/MIC [17] was 1. The “Antibacterial Mode” value [18] was “Bactericidal (if the quotient is lower than 4, compounds are defined as bactericidal)”, the MBC [18] was 6 µg/mL (≈ 19.8 µM) and the MBC/MIC [18] was 2. For the same compound, the “Antibacterial Mode” value [19] was “Bactericidal (if the quotient is lower than 4, compounds are defined as bactericidal)”, the MBC [19] was 24 µg/mL (≈ 79.3 µM) and the MBC/MIC [19] was 1. The “Antibacterial Mode” value [20] was “Bactericidal (if the quotient is lower than 4, compounds are defined as bactericidal)”, the MBC [20] was 12 µg/mL (≈ 39.7 µM) and the MBC/MIC [20] was 2. The “Antibacterial Mode” value [21] was “Bactericidal (if the quotient is lower than 4, compounds are defined as bactericidal)”, the MBC [21] was 24 µg/mL (≈ 79.3 µM) and the MBC/MIC [21] was 2. For the same compound, the “Antibacterial Mode” value [22] was “Bactericidal (if the quotient is lower than 4, compounds are defined as bactericidal)”, the MBC [22] was 6 µg/mL (≈ 19.8 µM) and the MBC/MIC [22] was 1. For the same compound, the “Antibacterial Mode” value [23] was “Bacteriostatic (Compounds with a quotient >4 are defined as bacteriostatic)”, the MBC [23] was 24 µg/mL (≈ 79.3 µM) and the MBC/MIC [23] was 4. The “Antibacterial Mode” value [24] was “Bacteriostatic (Compounds with a quotient >4 are defined as bacteriostatic)”, the MBC/MIC [24] was 4 and the MBC ([24]; Salmonella enterica) was 24 µg/mL (≈ 79.3 µM). For the same compound, the “Antibacterial Mode” value [25] was “Bacteriostatic (Compounds with a quotient >4 are defined as bacteriostatic)”, the MBC/MIC [25] was over 4 and the MBC ([25]; Klebsiella aerogenes) was over 96 µg/mL. For the same compound, the “Antibacterial Mode” value [26] was “Bacteriostatic (Compounds with a quotient >4 are defined as bacteriostatic)”, the MBC [26] was 96 µg/mL (≈ 317 µM) and the MBC/MIC [26] was 4. For the same compound, the “Antibacterial Mode” value [27] was “Bactericidal (if the quotient is lower than 4, compounds are defined as bactericidal)”, the MBC [27] was 6 µg/mL (≈ 19.8 µM) and the MBC/MIC [27] was 1. The MIC ([13]; Pseudomonas aeruginosa) was 5 to 20 µM and the MIC ([13]; against the pathogens tested, except Pseudomonas aeruginosa, read-out: MIC) was 3 to 12 µg/mL.

For `CC(C)CCCC(C)CCOc1ccc2[nH]cc(CCN)c2c1` (stereo not shown) [Compound 10], the MIC [1, 28] was 13 µg/mL (≈ 41.1 µM), the MIC [2, 28] was 6.3 µg/mL (≈ 19.9 µM) and the MIC [3] was 13 µg/mL (≈ 41.1 µM). For the same compound, the MIC [4, 28] was 25 µg/mL (≈ 79 µM), the MIC [5, 28] was over 101 µg/mL and the MIC [6, 28] was 13 µg/mL (≈ 41.1 µM). It also gave an MIC [7] of 6.3 µg/mL (≈ 19.9 µM), an MIC [8, 29] of 6.3 µg/mL (≈ 19.9 µM) and an MIC [9, 30] of 13 µg/mL (≈ 41.1 µM). For the same compound, the MIC [10, 28] was 25 µg/mL (≈ 79 µM), the MIC ([11]; read-out: MIC) was 6.3 µg/mL (≈ 19.9 µM) and the MIC [12] was 3.2 µg/mL (≈ 10.1 µM). For the same compound, the “MICs compared with Compound 1” value [13] was “either the same or 2× different from Compound 1; also recorded: either the same or 2-fold different from 1”.
